The record followed here is patent US20250050671A1, “THERMOSENSITIVE RECORDING LAYER FORMING LIQUID, THERMOSENSITIVE RECORDING MEDIUM AND PRODUCTION METHOD THEREOF, AND IMAGE RECORDING METHOD” (Ricoh Company, Ltd., priority 2021, published 2025).

The nature of this data set: Measurement of solubility of electron-accepting compound to solvent (saturated solution, gravimetric). The format is physicochemical. As to conditions: for Electron-accepting compound Solubility to ethanol: Table 2, repeated per forming liquid, 20° C.; for Solubility, alcohol solvent ethanol / Solubility, ester solvent ethyl acetate / Solubility, alcohol solvent isopropyl alcohol / Solubility, alcohol solvent methanol / Solubility, ketone solvent methyl ethyl ketone / Solubility, aromatic solvent toluene: saturated solution at 20° C.±3° C. As for the experimental part: <Measurement of Solubility of Electron-Accepting Compound to Solvent> […]
(2) While stirring a stirrer or a stirring rod, an electron-accepting compound was added gradually until insoluble matter of the electron-accepting compound appears at the bottom of the beaker.
(3) The resultant was left to stand for 1 hour or longer with a lid placed on top of the beaker.
(4) If the insoluble matter was completely disappeared by stirring with the stirring rod, the processes (2) to (4) were repeated.
(5) If the insoluble matter was remained after standing for 1 hour or longer, it was determined that preparation of a saturated solution was completed.
A weight (A) of an aluminium cup was weighed with the minimum unit of 1 mg or less.
The part of the transparent supernatant liquid of the saturated solution prepared in 1 was collected by a pipette, and the collected liquid was placed in the aluminium cup (about 0.8 g to about 1.3 g in weight) and a weight of the liquid was weighed with the minimum unit of 1 mg or less.
The aluminium cup in which the liquid was collected was placed in a dryer (120° C.±10° C.). Alternatively, the aluminium cup in which the liquid was collected is placed on a hot plate (120° C.±10° C.) in an area where a local ventilation was installed.
The solvent was evaporated from the liquid for 25 minutes or longer (a lid was placed to prevent inclusion of dusts when a hot plate was used).
The aluminium cup was removed from the drier or hot plate, and was left to stand for 1 minute or longer indoor, followed by weighing the total amount (C) with a unit of 1 mg or less.

For `Oc1ccc(C2(c3ccc(O)cc3)c3ccccc3-c3ccccc32)cc1` [Electron-Accepting Compound 1, 9,9-Bis(4-hydroxyphenyl)fluorene], the “Electron-accepting compound Solubility to ethanol” value is 4.7 % by mass; the “Solubility, alcohol solvent ethanol” value is 4.7 % by mass; the “Solubility, ester solvent ethyl acetate” value was found to be 9.0 % by mass; the “Solubility, alcohol solvent isopropyl alcohol” value is 4.5 % by mass. Further, the “Solubility, alcohol solvent methanol” value was 24.8 % by mass; the “Solubility, ketone solvent methyl ethyl ketone” value is recorded as 30.2 % by mass; the “Solubility, aromatic solvent toluene” value is given as 0.7 % by mass.

With `Cc1ccc(S(=O)(=O)Oc2cccc(NC(=O)Nc3ccccc3)c2)cc1` [Electron-Accepting Compound 3], the “Electron-accepting compound Solubility to ethanol” value was found to be 0.6 % by mass; the “Solubility, alcohol solvent ethanol” value came to 0.6 % by mass; the “Solubility, ester solvent ethyl acetate” value worked out at 1.6 % by mass; the “Solubility, alcohol solvent isopropyl alcohol” value was 0.8 % by mass. Besides, the “Solubility, alcohol solvent methanol” value is listed as 0.6 % by mass; the “Solubility, ketone solvent methyl ethyl ketone” value is 8.1 % by mass; the “Solubility, aromatic solvent toluene” value is given as 0.1 % by mass.

Take `Cc1ccc(S(=O)(=O)NC(=O)Nc2cccc(OS(=O)(=O)c3ccc(C)cc3)c2)cc1` [Electron-Accepting Compound 4, N-p-toluenesulfonyl-N′-3-(p-toluenesulfonyloxyphenyl)urea]: the “Electron-accepting compound Solubility to ethanol” value is on record as 0.4 % by mass; the “Solubility, alcohol solvent ethanol” value was determined as 0.4 % by mass; the “Solubility, ester solvent ethyl acetate” value is 2.1 % by mass; the “Solubility, alcohol solvent isopropyl alcohol” value stood at 0.4 % by mass. The “Solubility, alcohol solvent methanol” value is listed as 0.8 % by mass; the “Solubility, ketone solvent methyl ethyl ketone” value is 12.7 % by mass; the “Solubility, aromatic solvent toluene” value came to 0.1 % by mass.

`Cc1ccc(S(=O)(=O)Oc2cccc(NC(=O)Nc3cccc(OS(=O)(=O)c4ccc(C)cc4)c3)c2)cc1` [Electron-Accepting Compound 5, N,N′-di-[3-(p-toluenesulfonyloxy)phenyl]urea]: the “Electron-accepting compound Solubility to ethanol” value is on record as 0.1 % by mass; the “Solubility, alcohol solvent ethanol” value came out at 0.1 % by mass; the “Solubility, ester solvent ethyl acetate” value is 1.3 % by mass; the “Solubility, alcohol solvent isopropyl alcohol” value was 0.1 % by mass. For the same compound, the “Solubility, alcohol solvent methanol” value stood at 0.1 % by mass; the “Solubility, ketone solvent methyl ethyl ketone” value is listed as 11.3 % by mass; the “Solubility, aromatic solvent toluene” value came out at 0.1 % by mass.

Consider `O=S(=O)(c1ccc(O)cc1)c1ccc(O)cc1` [Electron-Accepting Compound 6, 4,4′-sulfonylbisphenol, reference compound], for which the “Electron-accepting compound Solubility to ethanol” value worked out at 34.1 % by mass; the “Solubility, alcohol solvent ethanol” value amounted to 34.1 % by mass; the “Solubility, ester solvent ethyl acetate” value worked out at 9.7 % by mass; the “Solubility, alcohol solvent isopropyl alcohol” value is recorded as 34.1 % by mass. For the same compound, the “Solubility, alcohol solvent methanol” value is on record as 33.7 % by mass; the “Solubility, ketone solvent methyl ethyl ketone” value was 36.5 % by mass; the “Solubility, aromatic solvent toluene” value was 0.1 % by mass.
